The values that follow come from patent US7892826B2, “Human cell clones having an endogeneous urotensin II receptor” (Janssen Pharmaceutica N.V., priority 2005, dated 2011).

Assay [1] addresses T1, endogeneous urotensin II receptor (UT receptor) in 6D9 cells (Homo sapiens, UniProt Q9UKP6).
T1 construct: endogenous in cells; host or cells: 6D9 (ATCC PTA-7749), sub-clone of human rhabdomyosarcoma line SJRH30 (ATCC CRL-2061)
T1 sequence (Q9UKP6 1-389): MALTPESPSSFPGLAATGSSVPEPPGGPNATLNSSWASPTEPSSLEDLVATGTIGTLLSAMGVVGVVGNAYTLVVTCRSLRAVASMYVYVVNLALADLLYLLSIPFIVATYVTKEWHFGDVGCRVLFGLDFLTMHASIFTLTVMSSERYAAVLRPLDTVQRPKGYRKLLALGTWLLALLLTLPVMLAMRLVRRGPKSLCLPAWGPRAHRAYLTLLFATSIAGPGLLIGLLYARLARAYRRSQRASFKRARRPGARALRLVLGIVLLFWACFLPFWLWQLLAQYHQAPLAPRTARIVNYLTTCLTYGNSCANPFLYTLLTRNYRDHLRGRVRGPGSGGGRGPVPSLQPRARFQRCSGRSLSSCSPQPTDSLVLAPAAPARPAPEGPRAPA
Put plainly: Calcium mobilization assay (FLIPR, Calcium 3 dye) in 6D9 cells. Type of assay: cell-based. As to conditions: 10 nM or 30 nM U-II (FIG. 6). The method, then:
Calcium mobilization was performed using FLIPR and Calcium 3, a non-wash Ca^2+ dye. Unlike the conventional Ca^2+ dye such as Fluo-3, Fluo-4, and Fura-2/AM, etc., the non-wash Ca^2+ dye was formulated to incorporate extracellular fluorescence quenchers and avoid the need to wash away extracellular Ca^2+ dye after loading the cells with the dye (Monteith and Bird, 2005, supra).
Cells were plated into 96 or 384 well plates and were incubated at 37° C. After the incubation, the growth medium was removed and replaced with HBSS (Hanks Balanced salt solution #21-023-CV, Mediatech, Inc, Herndon, Va.) containing Calcium 3 dye with probenecid.
In addition, the cells survived in cultures for over 3 months (17 passages) and were still responsive to U-II (FIG. 4).

Assay [2] deals with T1, endogeneous urotensin II receptor (UT receptor) in 6D9 cells. Put plainly: 384-well FLIPR high throughput calcium mobilization assay in 6D9 cells. Type of assay: cell-based. As to conditions: 384-format. As for the experimental part: Calcium mobilization was performed using FLIPR and Calcium 3, a non-wash Ca^2+ dye. Unlike the conventional Ca^2+ dye such as Fluo-3, Fluo-4, and Fura-2/AM, etc., the non-wash Ca^2+ dye was formulated to incorporate extracellular fluorescence quenchers and avoid the need to wash away extracellular Ca^2+ dye after loading the cells with the dye (Monteith and Bird, 2005, supra). Cells were plated into 96 or 384 well plates and were incubated at 37° C. After the incubation, the growth medium was removed and replaced with HBSS (Hanks Balanced salt solution #21-023-CV, Mediatech, Inc, Herndon, Va.) containing Calcium 3 dye with probenecid. […] This Example teaches a high throughput approach using FLIPR on a 384-well format. […] Various factors of the FLIPR assay had been tested to minimize the measure variability.

Structures are written as SMILES. Bridge positions count the residues as written; N and C are the ends. Square brackets hold non-standard residues; d marks the D form. Peptide text beside a SMILES is read from it. Pen = CC(C)(S)[C@H](N)C(=O)O; Orn = NCCC[C@H](N)C(=O)O

As for `CC(C)[C@H](NC(=O)[C@@H]1CSSC(C)(C)[C@H](NC(=O)[C@@H](N)CC(=O)O)C(=O)N[C@@H](Cc2ccccc2)C(=O)N[C@H](Cc2c[nH]c3ccccc23)C(=O)N[C@@H](CCCN)C(=O)N[C@@H](Cc2ccc(O)cc2)C(=O)N1)C(=O)O` [Urantide] (H-D[Pen]F[dW][Orn]YCV-OH; disulfide 2-7), the “Block of calcium mobilization coupled to U-II stimulation” value in assay [1] was “blocked the calcium mobilization coupled to U-II stimulation”. Moreover, in assay [2], the “Dose dependence of response in HTS calcium mobilization assay” value was “dose dependent responses”.
For the compound `CC(C)[C@H](NC(=O)[C@@H]1CSSC[C@H](NC(=O)[C@H](CC(=O)O)NC(=O)[C@@H]2CCCN2C(=O)[C@@H](NC(=O)[C@@H](N)CCC(=O)O)[C@@H](C)O)C(=O)N[C@@H](Cc2ccccc2)C(=O)N[C@@H](Cc2c[nH]c3ccccc23)C(=O)N[C@@H](CCCCN)C(=O)N[C@@H](Cc2ccc(O)cc2)C(=O)N1)C(=O)O` [hU-II, SEQ ID NO: 2, ETPDCFWKYCV], in assay [2], the “Dose dependence of response in HTS calcium mobilization assay” value was “dose dependent responses”.
